{
  "source": "patent US9458123B2",
  "about": "“Methods, pharmaceutical compositions, therapeutic systems, and compounds for treating B cell malignancies” (University of Rochester, priority 2012, dated 2016)",
  "origin": "cited, not measured here",
  "molecular_target": "Ubc13 and Uev1A (Homo sapiens, UniProt P61088+Q13404)",
  "sequence (P61088 whole entry, species assumed)": "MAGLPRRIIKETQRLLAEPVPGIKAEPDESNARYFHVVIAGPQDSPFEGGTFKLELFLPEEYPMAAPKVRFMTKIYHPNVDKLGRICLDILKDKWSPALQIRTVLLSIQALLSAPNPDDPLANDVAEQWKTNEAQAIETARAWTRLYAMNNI",
  "sequence (Q13404 whole entry, species assumed)": "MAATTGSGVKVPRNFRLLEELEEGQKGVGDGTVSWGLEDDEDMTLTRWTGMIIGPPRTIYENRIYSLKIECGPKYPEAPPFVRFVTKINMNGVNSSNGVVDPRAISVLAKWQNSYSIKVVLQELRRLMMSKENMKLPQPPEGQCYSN",
  "details": "previous studies; cited from earlier work",
  "data": [
    {"smiles": "C[C@@H](N)[C@@H](O)C/C=C\\C/C=C\\C/C=C\\C/C=C\\C/C=C\\C/C=C\\CCCCCC[C@H](O)[C@@H](C)N", "note": "[leucettamol A]", "values": [
      {"measurement": "complex formation between Ubc13 and Uev1A in vitro", "result": "inhibited"}
    ]}
  ]
}
